Assay results as given in US20110230476A1, “PI3 KINASE INHIBITORS AND USES THEREOF” (AVILA THERAPEUTICS, INC., priority 2009, published 2011).
“Also recorded” adds a separate entry of the source.

Tests used:
p110alpha = p110alpha (Homo sapiens, UniProt P42336); assay: In vitro occupancy in SKOV-3 cells with covalent probe; type: cell-based; conditions: covalent probe XIV-a-3 or XIV-a-4
SK-OV-3 cells = assay: SK-OV-3 cell proliferation assay; type: cell-based; conditions: Homo sapiens; SK-OV-3 proliferation, 72 hours, Cell Titer Glo
Procedure: SK-OV-3 Cell Proliferation Assay
(§1) For the SK-OV-3 proliferation Assay, 5000 cells per well were plated in Growth Media (DMEM, 10% FBS, 1% 1-glutamine, 1% penicillin/streptomycin) in 96 well plates. The following day, compounds were added to duplicate wells at concentrations of 10 uM and 3-fold dilutions down to 40 nM. The plates were returned to the incubator for 72 hours and then the assays were developed using Cell Titer Glo (Promega, Madison, Wis.) according to manufacturer's instructions.

PI3K = PI3K HCT116 cellular assay (Western blot); type: cell-based; conditions: Homo sapiens, HCT-116, HCT116 colon cancer cells, 1 hour incubation, read-out: PI3K Inhibition
Procedure: PI3K HCT116 Cellular Assay
Selected compounds were assayed in HCT116 colon cancer cells. […] Cells were then washed with PBS, lysed and the protein lysates were then recovered and analyzed by Western blot.

PI3 kinase = assay: Comparison of covalent and non-covalent inhibitors (Tables 18 and 19): prolonged PD, mechanism; conditions: Table 19
Procedure: “A” designates ≦10 nM; “B” designates 10-100 nM; and “C” designates 100-1000 nM

HCT116 cells = assay: HCT-116 cell proliferation assay; type: cell-based; conditions: Homo sapiens, 72 hours, Cell Titer Glo
Procedure: HCT-116 Cell Proliferation Assay
as §1, with “HCT116 Proliferation” for “SK-OV-3 proliferation”, “3000” for “5000”

SKOV-3 tumors = assay: Tumor growth inhibition in vivo; conditions: nude mice, subcutaneous SKOV-3 tumors; GDC-941 orally, II-a-3 I.P., 50-100 mg/Kg/QD, 21 days
Procedure: Tumor Growth Inhibition In Vivo
The in vivo experiment was performed at Piedmont Research Center (Research Triangle Park, N.C.). Nude mice were implanted with SKOV-3 tumors subcutaneously. […] Dosing continued for 21 days. Tumor volume was measured twice a week.

PI3Kα [1] = target: T1, PI3Kα (Homo sapiens, UniProt P42336); assay: Mass spectrometry of intact PI3Kα (Millipore, 14-602), 1 hr incubation; type: binding; set-up: purchased Millipore 14-602; conditions: 10× fold excess of compound, MALDI
T1 sequence (P42336 whole entry): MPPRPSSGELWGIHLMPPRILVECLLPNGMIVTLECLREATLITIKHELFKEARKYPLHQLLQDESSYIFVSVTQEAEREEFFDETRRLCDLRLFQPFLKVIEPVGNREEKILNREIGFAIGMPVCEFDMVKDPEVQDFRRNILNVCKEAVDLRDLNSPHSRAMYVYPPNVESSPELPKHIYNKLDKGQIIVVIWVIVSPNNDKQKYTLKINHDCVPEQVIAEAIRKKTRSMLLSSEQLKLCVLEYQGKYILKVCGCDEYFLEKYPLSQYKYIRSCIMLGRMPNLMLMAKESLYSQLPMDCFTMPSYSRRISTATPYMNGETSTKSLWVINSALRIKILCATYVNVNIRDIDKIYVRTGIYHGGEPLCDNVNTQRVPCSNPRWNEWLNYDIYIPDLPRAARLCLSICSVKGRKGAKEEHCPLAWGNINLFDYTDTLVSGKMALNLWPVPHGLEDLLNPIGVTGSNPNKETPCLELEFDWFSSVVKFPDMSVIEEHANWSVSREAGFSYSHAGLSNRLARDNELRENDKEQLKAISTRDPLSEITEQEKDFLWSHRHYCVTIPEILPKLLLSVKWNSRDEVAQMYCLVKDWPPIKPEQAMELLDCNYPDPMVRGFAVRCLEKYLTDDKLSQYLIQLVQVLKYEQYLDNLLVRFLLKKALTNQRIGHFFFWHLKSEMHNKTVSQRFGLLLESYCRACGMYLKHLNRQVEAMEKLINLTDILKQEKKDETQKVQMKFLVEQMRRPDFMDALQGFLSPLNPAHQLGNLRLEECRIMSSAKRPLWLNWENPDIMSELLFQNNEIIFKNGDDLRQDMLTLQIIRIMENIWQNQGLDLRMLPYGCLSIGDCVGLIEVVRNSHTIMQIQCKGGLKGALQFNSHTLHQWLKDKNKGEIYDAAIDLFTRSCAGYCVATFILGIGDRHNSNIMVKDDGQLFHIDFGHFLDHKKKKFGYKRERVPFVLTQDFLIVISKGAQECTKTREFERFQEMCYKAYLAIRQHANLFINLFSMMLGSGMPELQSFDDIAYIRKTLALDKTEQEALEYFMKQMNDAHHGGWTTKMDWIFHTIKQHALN
T1 sequence (P27986 whole entry partner): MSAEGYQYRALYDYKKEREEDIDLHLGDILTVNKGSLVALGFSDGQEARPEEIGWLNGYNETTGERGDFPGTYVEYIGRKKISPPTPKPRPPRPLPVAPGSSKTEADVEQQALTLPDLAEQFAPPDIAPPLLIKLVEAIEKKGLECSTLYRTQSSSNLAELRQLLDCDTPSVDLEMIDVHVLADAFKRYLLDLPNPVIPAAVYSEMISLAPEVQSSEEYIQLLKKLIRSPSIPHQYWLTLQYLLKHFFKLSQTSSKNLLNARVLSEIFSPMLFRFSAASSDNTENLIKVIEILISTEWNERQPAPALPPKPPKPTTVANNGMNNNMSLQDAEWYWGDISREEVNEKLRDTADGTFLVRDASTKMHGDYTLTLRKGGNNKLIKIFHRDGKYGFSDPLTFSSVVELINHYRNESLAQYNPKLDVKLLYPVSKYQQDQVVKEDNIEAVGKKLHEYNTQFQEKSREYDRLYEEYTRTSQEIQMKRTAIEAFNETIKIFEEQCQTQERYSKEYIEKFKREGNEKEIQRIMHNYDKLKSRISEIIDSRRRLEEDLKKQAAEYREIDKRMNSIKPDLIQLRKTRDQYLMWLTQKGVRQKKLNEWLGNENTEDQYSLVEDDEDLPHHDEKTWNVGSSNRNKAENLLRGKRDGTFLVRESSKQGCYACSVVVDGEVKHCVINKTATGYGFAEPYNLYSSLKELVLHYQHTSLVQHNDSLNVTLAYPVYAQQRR
Procedure: Mass Spectrometry for PI3K
Aliquots (5 μl) of the samples were diluted with 15 μl of 0.2% TFA prior to micro C4 ZipTipping directly onto the MALDI target using Sinapinic acid as the desorption matrix (10 mg/ml in 0.1% TFA:Acetonitrile 50:50).

PI3Kβ (p110β/p85α) = target: T2, PI3Kβ (p110β/p85α) (Homo sapiens, UniProt P42338); assay: HTRF assay, potency against active PI3Kβ; type: biochemical; conditions: [ATP]=50 μM, [di-C8-PIP2]=10 μM, 30 min pre-incubation, read-out: PI3Kβ Inhibition
T2 construct: purchased BPS Bioscience (San Diego, Calif.) or Millipore (Billerica, Mass.)
T2 sequence (P42338 whole entry): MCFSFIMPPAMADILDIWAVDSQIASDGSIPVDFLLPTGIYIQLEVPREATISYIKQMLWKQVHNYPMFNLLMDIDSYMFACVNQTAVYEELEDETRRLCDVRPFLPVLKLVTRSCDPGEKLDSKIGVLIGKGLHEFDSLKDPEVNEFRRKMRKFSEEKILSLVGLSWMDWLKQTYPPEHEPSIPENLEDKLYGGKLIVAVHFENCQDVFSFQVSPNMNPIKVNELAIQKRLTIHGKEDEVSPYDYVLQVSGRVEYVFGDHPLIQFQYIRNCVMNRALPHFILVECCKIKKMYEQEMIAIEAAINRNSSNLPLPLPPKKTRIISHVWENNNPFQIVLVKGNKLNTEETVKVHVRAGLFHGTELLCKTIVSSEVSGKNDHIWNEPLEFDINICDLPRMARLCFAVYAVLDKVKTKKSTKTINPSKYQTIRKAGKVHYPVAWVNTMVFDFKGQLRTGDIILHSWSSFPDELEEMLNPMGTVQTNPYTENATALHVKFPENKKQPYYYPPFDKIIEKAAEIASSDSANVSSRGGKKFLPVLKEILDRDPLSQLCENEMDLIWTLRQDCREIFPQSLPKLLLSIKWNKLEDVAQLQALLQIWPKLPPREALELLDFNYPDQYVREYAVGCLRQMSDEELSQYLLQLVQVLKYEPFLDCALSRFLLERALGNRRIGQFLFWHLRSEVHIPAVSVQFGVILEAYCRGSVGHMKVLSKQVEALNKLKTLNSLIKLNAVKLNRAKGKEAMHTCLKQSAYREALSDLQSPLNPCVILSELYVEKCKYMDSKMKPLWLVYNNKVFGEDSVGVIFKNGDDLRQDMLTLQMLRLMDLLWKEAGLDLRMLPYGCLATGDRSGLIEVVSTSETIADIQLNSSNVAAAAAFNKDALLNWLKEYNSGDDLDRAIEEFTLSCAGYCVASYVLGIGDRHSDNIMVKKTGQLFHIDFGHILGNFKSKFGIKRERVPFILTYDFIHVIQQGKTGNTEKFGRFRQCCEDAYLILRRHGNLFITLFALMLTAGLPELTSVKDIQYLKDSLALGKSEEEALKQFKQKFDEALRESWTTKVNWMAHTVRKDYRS
T2 sequence (P27986 whole entry partner): as the sequence (P27986 whole entry partner) above
Procedure: Homogeneous Time Resolved Fluorescence (HTRF) Assay Protocol for Potency Assessment Against the Active Forms of PI3Kα, PI3Kβ, and PI3Kγ
The mechanics of the assay platform are best described by the vendor (Millipore, Billerica, Mass.) on their website at the following URL: www.millipore.com/coa/tech1/74jt4z.
Briefly, Stop solution (Stop A, #33-007 and Stop B, #33-009; 3:1 ratio) and Detection Mix (from DMC, #33-015 with DMA, #33-011 and DMB, #33-013; 18:1:1 ratio) were prepared as recommended by the manufacturer about 2 hrs prior to use. […] Lipid kinase reactions were started with the addition of 5 μL of ATP solution, mixed for 15 sec on a rotary plate shaker and incubated for 30-60 minutes at 25° C. Next, reactions were stopped with a 5 μL addition of Stop solution immediately followed by a 5 μL volume of Detection Mix. […] At the conclusion of each assay, the HTRF ratio from fluorescence emission values for each well was calculated and % Inhibition determined from averaged controls wells (+/−PI3K enzyme). % Inhibition values for each compound were then plotted against inhibitor concentration to estimate IC50 from log [Inhibitor] vs Response, Variable Slope model in GraphPad Prism from GraphPad Software (San Diego, Calif.).

Phospho-Akt(Ser473) = assay: Dose response in SKOV3 cells as determined by in-cell Western; type: cell-based; conditions: Homo sapiens, SK-OV-3; SKOV3 cells, 1 hr; read-out: pAKT Inhibition in cell Western
Outline: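 SKOV3 cells treated with compound for 1 hr, then formaldehyde-fixed, permeabilised and stained overnight for phospho-Akt(Ser473) with anti-tubulin as a reference. Infrared secondary antibodies read at 680 and 800 nm channels by in-cell Western imaging.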

SKOV3 cells = assay: GI50 determinations in SKOV3 cells; type: cell-based; conditions: Homo sapiens, SK-OV-3; SKOV3 cells, 96 hours, Cell Titer Glo
Procedure: GI50 Determinations in SKOV3 Cells
A standard curve ranging from 10,000 to 50,000 cells was set up in a separate plate and allowed to adhere to the plate for 4-6 hours, at which time the plate was developed using Cell Titer-Glow (Promega, Madison, Wis.) according to manufacturer's instructions.
The next morning, 3-fold compound dilutions ranging from 10,000 nM to 40 nM were prepared in Proliferation Media containing 1% DMSO. 20 ul of each dilution was added to the SKOV3 cells plated the previous day resulting in a dose response curve from 1000 nM to 4 nM. The cells were incubated for 96 hours and then developed with Cell Titer Glo.
The cell numbers at the end of the assay were determined using the standard curve generated at the start of the assay. Growth inhibition was calculated using the following formulas and GI50s were determined by plotting the % growth inhibition vs. Log compound concentration in GraphPad.
%growth=100×(T−T0)/(C−T0)
T=Cell Number at end of assay T0=Cell Number at start of assay (5000) C=Number of cells in DMSO controls at end of assay
%growth inhibition=100−%growth

PI3Kα [2] = target: T1, PI3Kα; assay: Trypsin digest and MS-MS analysis of compound-treated PI3Kα; type: binding; set-up: purchased Millipore 14-602; conditions: in-gel trypsin digest
Procedure: (§2) The PI3Kα protein band was then excised and subjected to an in-gel trypsin digest by reducing the protein with DTT, alkylating the thiols with iodoacetamide, and then incubating the protein gel band with trypsin overnight in a 37° C. water bath. The digest was then stopped by addition of trifluoroacetic acid, and peptides were removed from gel band by sonicating with increasing amounts of acetonitrile (0%, 30%, & 60%). Peptides were then purified using C18 ziptips, spotted on the MALDI target plate with α-cyano-4-hydroxycinnamic acid as the desorption matrix (10 mg/ml in 0.1% TFA:Acetonitrile 50:50), and analyzed in reflectron mode.
as §2, with “trifluoro acetic” for “trifluoroacetic”

PI3Kα (p110α/p85α) = target: T3, PI3Kα (p110α/p85α) (Homo sapiens, UniProt P42336); assay: HTRF assay, potency against active PI3Kα; type: biochemical; conditions: HTRF; [ATP]=50 μM, [di-C8-PIP2]=10 μM; 30 min pre-incubation; read-out: PI3Kα Inhibition
T3 construct: purchased BPS Bioscience (San Diego, Calif.) or Millipore (Billerica, Mass.)
T3 sequence (P42336 whole entry): as the sequence (P42336 whole entry) above
T3 sequence (P27986 whole entry partner): as the sequence (P27986 whole entry partner) above
Outline: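 Active p110/p85α lipid kinase reactions were started with ATP and run 30-60 minutes at 25 °C, then stopped and developed with HTRF detection mix. HTRF ratio converted to % inhibition against ±enzyme controls; IC50 from log[inhibitor] vs response, variable slope.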

Sequence of p110alpha (P42336 whole entry): as the sequence (P42336 whole entry) above

| Structure (SMILES) | target occupancy (competition with the covalent probe) (p110alpha) | EC50 (SK-OV-3 cells) [µM] | EC50 (PI3K) [µM] | Prolonged PD (PI3 kinase) | EC50 (HCT116 cells) [µM] | tumor growth (SKOV-3 tumors) | covalent modification of PI3Kα (PI3Kα [1]) | mass shift of PI3Kα (PI3Kα [1]) [Da] | mass shift of PI3Kα, per cent in brackets (PI3Kα [1]) [%] | IC50 (PI3Kβ (p110β/p85α)) [µM] | EC50 (Phospho-Akt(Ser473)) [µM] | GI50 (SKOV3 cells) [µM] | site on PI3Kα that is covalently modified (PI3Kα [2]) | IC50 (PI3Kα (p110α/p85α)) [µM] |
| --- | --- | --- | --- | --- | --- | --- | --- | --- | --- | --- | --- | --- | --- | --- |
| CS(=O)(=O)N1CCN(Cc2cc3nc(-c4cccc5[nH]ncc45)nc(N4CCOCC4)c3s2)CC1 [GDC-941, reference compound] | does not compete with the covalent probe | […] | […] | No | […] | Inhibition of tumor growth | – | – | – | – | – | – | – | – |
| C=CC(=O)Nc1ccc(C(=O)N2CC=C(c3cc4nc(-c5cccc6[nH]ncc56)nc(N5CCOCC5)c4s3)CC2)cc1 [II-a-144, N-(4-(4-(2-(1H-indazol-4-yl)-4-morpholinothieno[3,2-d]pyrimidin-6-yl)-1,2,3,6-tetrahydropyridine-1-carbonyl)phenyl)acrylamide] | – | – | – | – | – | – | complete modification; also recorded: covalent modification | 575 | 97 | 0.1 to 1 | 0.1 to 1 | 0.1 to 1 | Cys-862; also recorded: peptide ^853NSHTIMQIQCK^863 | 0.1 to 1 |
